# Patent US11865098B1, “Methods and compositions for treating excessive sleepiness” (Axsome Malta Ltd., priority 2017, dated 2024)
# Key:
# Assay type in all cases: in vivo, human
# [1] = system: adult patients with OSA and ES; assay: ESS, 12-week placebo-controlled parallel study in OSA; conditions: 37.5, 75, 150, 300 mg; week 12
# Description: The ESS is a subjective sleepiness test that is well known in the art and routinely used to measure the sleepiness level of a subject. The scale is intended to measure daytime sleepiness through the use of a short questionnaire that asks the subject to rate his or her probability of falling asleep on a scale of increasing probability from 0 to 3 for eight different situations that most people engage in during their daily lives. The scores for the eight questions are added together to obtain a single number that estimates the subject's average sleep propensity (ASP). […]
# The study was a 12-week, double-blind, placebo-controlled, parallel design study as described in greater detail in Example 1 (Schweitzer et al., Sleep 40(Abstract Supplement):A237. Abstract 0641 (2017)). […] The Functional Outcomes of Sleep questionnaire short version (FOSQ-10) (Chasens et al., Sleep 32(7):915 (2009)) evaluated the effects of ES on functioning. The Work Productivity and Activity Impairment questionnaire for Specific Health Problems (WPAI:SHP) (Reilly et al., Pharmacoeconomics 4(5):353 (1993); Reilly, Work Productivity and Activity Impairment Questionnaire: Specific Health Problem V2.0 (WPAI: SHP). www.reillyassociates.net/WPAI_SHP) evaluated work productivity impairment among employed patients and overall activity impairment outside of work among all patients for the past 7 days. […]
# [2] = system: adult patients with OSA and ES; assay: EQ-5D-5L, 12-week parallel study in OSA; conditions: week 12
# Description: This was a 12-week, double-blind, placebo-controlled, parallel-design study. Patients were randomized (1:1:2:2:2) to APC 37.5 mg, 75 mg, 150 mg, or 300 mg, or placebo for 12 weeks, and were stratified by adherence or nonadherence with primary OSA therapy.
# The SF-36 v2 consists of 2 summary scales (Physical Component Summary and Mental Component Summary) and 8 specific health status domains (Physical Function, Role Physical, Bodily Pain, General Health, Vitality, Social Functioning, Role Emotional, Mental Health) (Ware Jr et al., User's Manual for the SF-36v2™ Health Survey (2nd ed). QualityMetric Incorporated (Lincoln, RI); 2007). […]
# Efficacy analyses were based on the modified intent-to-treat (mITT) population; there was no multiplicity adjustment for the SF-36 v2 or EQ-5D-5L. SF-36 v2 scores were scaled from 0 to 100 (higher scores on all scales represent better health), transformed to norm-based scores using US general-population data from SF-36 Manuals (Ware Jr et al., User's Manual for the SF-36v2™ Health Survey (2nd ed.). QualityMetric Incorporated (Lincoln, RI); 2007), and were analyzed using a mixed-effect model with repeated measures (MMRM); and baseline value of the efficacy endpoint was used to determine differences in changes from baseline. EQ-5D-5L VAS and index-score data were analyzed using an MMRM model. […]
# [3] = system: patients with narcolepsy type 1 or type 2; assay: PGI-C, 12-week phase 3 study in narcolepsy
# Description: The study was a 12-week, double-blind, randomized, placebo-controlled, parallel-group study. Patients were randomized (1:1:1:1) to receive placebo or APC 75, 150, or 300 mg; randomization was stratified by the presence or absence of cataplexy.
# Co-primary endpoints were change from baseline to week 12 in MWT mean sleep latency and ESS score. The key secondary endpoint was the percentage of patients who reported improvement on the Patient Global Impression of Change (PGI-C) (Guy, ECDEU assessment manual for psychopharmacology, revised. US Department of Health, Education, and Welfare publication (ADM 76-338). Rockville, MD: National Institute of Mental Health; 1976) at week 12. Other secondary and exploratory endpoints included changes on function and quality-of-life and changes in the number of cataplexy attacks per week. Safety evaluation included adverse events, laboratory tests, and vital signs.
# Efficacy analyses were based on the modified intent-to-treat population (mITT), defined as all patients who were randomized, received at least 1 dose of study drug, and had baseline and at least 1 post-baseline evaluation of both MWT and ESS. MWT and ESS were analyzed using a mixed-effect repeated measures (MMRM) model. PGI-C was analyzed using a chi-square test. […]
smiles,measurement,setting,value
"NC(=O)OC[C@H](N)Cc1ccccc1 [JZP-110, (R)-2-amino-3-phenylpropyl carbamate]",Co-primary ESS endpoint,[1],met at all doses
same,"EQ-5D-5L index value, effect",[2],no significant effects
same,"EQ-5D VAS, effect vs placebo",[2]; appeared dose dependent,not significantly different from placebo
same,Percentage of patients who reported improvement in overall condition (PGI-C) relative to placebo,"[3]; all doses (nominal P-value at 75 mg), week 12, mITT",significantly increased the percentage of patients who reported improvement
same,"PGI-C improvement, effect at week 1","[3]; all doses, as early as week 1",Statistically significant effects
